Like-named read-outs stand apart in the source and are kept apart here.
Key:
Format in all cases: in vivo
[1] = tested on: serotonin; test: combined apomorphine, tryptamine, norepinephrine (ATN) test in rats: tryptamine (TRY), central (convulsions) and peripheral (hyperaemia) serotonin antagonism; details: Rattus norvegicus
[2] = tested on: norepinephrine; test: combined apomorphine, tryptamine, norepinephrine (ATN) test in rats: norepinephrine (NOR), peripheral α-adrenergic antagonism; details: Rattus norvegicus, read-out: NOR, ED50
[3] = tested on: dopamine; test: combined apomorphine, tryptamine, norepinephrine (ATN) test in rats: apomorphine (APO), central dopamine antagonism; details: Rattus norvegicus, preventing the symptoms elicited with apomorphine
[4] = preventing central symptoms (convulsions), central serotonin antagonism, read-out: TRY convulsions, ED50
[5] = preventing peripheral symptoms (hyperaemia), peripheral serotonin antagonism, read-out: TRY hyperaemia, ED50
[6] = preventing or delaying death upon administration of norepinephrine, rats, peripheral α-adrenergic antagonism

## Cc1nc2n(c(=O)c1CCN1CCC(n3ccc4ccccc43)CC1)CCS2 [Compound 1, 2,3-dihydro-6[2-[4-(1H-indol-1-yl)-1-piperidinyl]ethyl]-7-methyl-5H-thiazolo[3,2-a]-pyrimidin-5-one]
[1]; [4]
  ED50: 0.63 mg/kg
[1]; [5]
  ED50: 0.04 mg/kg
[2]
  ED50: > 10 mg/kg
[3]
  ED50: 0.63 mg/kg

## Cc1nc2n(c(=O)c1CCN1CCC(n3ccc4cc(F)ccc43)CC1)CCS2 [Compound 2]
[1]; [4]
  ED50: 0.63 mg/kg
[1]; [5]
  ED50: 0.01 mg/kg
[2]
  ED50: 10 mg/kg
[3]
  ED50: 0.16 mg/kg

## Cc1nc2sccn2c(=O)c1CCN1CCC(n2ccc3ccccc32)CC1 [Compound 3, 6-[2-[4-(1H-indol-1-yl)-1-piperidinyl]ethyl]-7-methyl-5H-thiazolo[3,2-a]pyrimidin-5-one]
[1]; [4]
  ED50: 0.16 mg/kg
[1]; [5]
  ED50: 0.01 mg/kg
[2]
  ED50: > 10 mg/kg
[3]
  ED50: 0.16 mg/kg

## Cc1nc2sccn2c(=O)c1CCN1CCC(n2ccc3cc(F)ccc32)CC1 [Compound 4, 6-[2-[4-(5-fluoro-1H-indol-1-yl)-1-piperidinyl]ethyl]-7-methyl-5H-thiazolo[3,2-a]-pyrimidin-5-one]
[1]; [4]
  ED50: 0.04 mg/kg
[1]; [5]
  ED50: 0.01 mg/kg
[2]
  ED50: 2.5 mg/kg
[3]
  ED50: 0.04 mg/kg

## Cc1nc2sccn2c(=O)c1CCN1CCC(N2CCc3ccccc32)CC1 [Compound 5]
[1]; [4]
  ED50: 0.31 mg/kg
[1]; [5]
  ED50: 0.02 mg/kg
[3]
  ED50: 0.08 mg/kg

## Cc1nc2scc(C)n2c(=O)c1CCN1CCC(n2ccc3ccccc32)CC1 [Compound 6, 6-[2-[4-(1H-indol-1-yl)-1-piperidinyl]ethyl]-3,7-dimethyl-5H-thiazolo[3,2-a]pyrimidin-5-one]
[1]; [4]
  ED50: 0.16 mg/kg
[1]; [5]
  ED50: 0.01 mg/kg
[2]
  ED50: 10 mg/kg
[3]
  ED50: 0.16 mg/kg

## Cc1nn2c(=O)c(CCN3CCC(n4ccc5cc(F)ccc54)CC3)c(C)nc2s1 [Compound 8, 6-[2-[4-(5-fluoro-1H-indol-1-yl)-1-piperidinyl]-ethyl]-2,7-dimethyl-5H-1,3,4-thiadiazolo[3,2-a]pyrimidin-5-one]
[1]; [4]
  ED50: 0.63 mg/kg
[1]; [5]
  ED50: 0.04 mg/kg
[2]
  ED50: 10 mg/kg
[3]
  ED50: 0.63 mg/kg

## Cc1cc2nc(C)c(CCN3CCC(n4ccc5cc(F)ccc54)CC3)c(=O)n2o1 [Compound 10]
[1]; [4]
  ED50: 0.16 mg/kg
[1]; [5]
  ED50: 0.0025 mg/kg
[2]
  ED50: 10 mg/kg
[3]
  ED50: 0.63 mg/kg

## Cc1nc2n(c(=O)c1CCN1CCC(n3ccc4cc(F)ccc43)CC1)CCCC2 [Compound 12, 3-[2-[4-(5-fluoro-1H-indol-1-yl)-1-piperidinyl]ethyl]-6,7,8,9-tetrahydro-2-methyl-4H-pyrido[1,2-a]pyrimidin-4-one]
[1]; [4]
  ED50: 0.31 mg/kg
[1]; [5]
  ED50: 0.02 mg/kg
[2]
  ED50: > 10 mg/kg
[3]
  ED50: 0.31 mg/kg

## COC1CCCn2c1nc(C)c(CCN1CCC(n3ccc4cc(F)ccc43)CC1)c2=O (centres unmarked) [Compound 15]
[1]; [4]
  ED50: 0.63 mg/kg
[1]; [5]
  ED50: 0.01 mg/kg
[2]
  ED50: 10 mg/kg
[3]
  ED50: 0.16 mg/kg

## Cc1nc2n(c(=O)c1CCN1CCC(n3ccc4ccccc43)CC1)CCCS2 [Compound 16]
[1]; [4]
  ED50: 0.63 mg/kg
[1]; [5]
  ED50: 0.02 mg/kg
[2]
  ED50: 10 mg/kg
[3]
  ED50: 0.16 mg/kg

## Cc1nc2n(c(=O)c1CCN1CCC(n3ccc4cc(F)ccc43)CC1)CCCS2 [Compound 17]
[1]; [4]
  ED50: 0.16 mg/kg
[1]; [5]
  ED50: 0.02 mg/kg
[2]; [6]
  ED50: 5 mg/kg
[3]
  ED50: 0.08 mg/kg

## Cc1nc2ccccn2c(=O)c1CCN1CCC(n2ccc3cc(F)ccc32)CC1 [Compound 18]
[1]; [4]
  ED50: 0.08 mg/kg
[1]; [5]
  ED50: 0.01 mg/kg
[2]; [6]
  ED50: 5 mg/kg
[3]
  ED50: 0.08 mg/kg

## Cc1nc2c(C)cccn2c(=O)c1CCN1CCC(n2ccc3ccccc32)CC1 [Compound 19]
[1]; [4]
  ED50: 2.5 mg/kg
[1]; [5]
  ED50: 0.63 mg/kg
[2]
  ED50: > 10 mg/kg
[3]
  ED50: 0.63 mg/kg

## Cc1nc2c(C)cccn2c(=O)c1CCN1CCC(n2ccc3cc(F)ccc32)CC1 [Compound 20]
[1]; [4]
  ED50: 0.63 mg/kg
[1]; [5]
  ED50: 0.16 mg/kg
[2]
  ED50: > 10 mg/kg
[3]
  ED50: 0.63 mg/kg

## CNc1nc(C)c(CCN2CCC(n3ccc4cc(F)ccc43)CC2)c(=O)n1C [Compound 24, 5-[2-[4-(5-fluoro-1H-indol-1-yl)-1-piperidinyl]ethyl]-3,6-dimethyl-2-(methylamino)-4(3H)-pyrimidinone]
[1]; [4]
  ED50: 0.16 mg/kg
[1]; [5]
  ED50: 0.01 mg/kg
[2]
  ED50: 10 mg/kg
[3]
  ED50: 0.63 mg/kg

## CCSc1nc(C)c(CCN2CCC(n3ccc4ccccc43)CC2)c(=O)n1C [Compound 25]
[1]; [4]
  ED50: 2.5 mg/kg
[1]; [5]
  ED50: 0.16 mg/kg
[2]
  ED50: > 10 mg/kg
[3]
  ED50: 0.63 mg/kg

## O=C(O)/C=C/C(=O)O.O=c1[nH]c2ccccc2n1CCCN1CCC(n2ccc3cc(F)ccc32)CC1 [Compound 28, 1-[3-[4-(5-fluoro-1H-indol-1-yl)-1-piperidinyl]propyl]-1,3-dihydro-2H-benzimidazol-2-one (E)-2-butenedioate (1:1)]
[1]; [4]
  ED50: 0.16 mg/kg
[1]; [5]
  ED50: 0.01 mg/kg
[2]
  ED50: > 10 mg/kg

## Cc1nc2n(c(=O)c1CCN1CCC(n3ccc4cc(F)ccc43)CC1)C(C)CCC2 (centres unmarked) [Compound 29]
[1]; [4]
  ED50: 0.31 mg/kg
[1]; [5]
  ED50: 0.005 mg/kg
[2]; [6]
  ED50: 5 mg/kg
[3]
  ED50: 0.08 mg/kg

## Cc1nc2n(c(=O)c1CCN1CCC(N3CCc4ccccc43)CC1)CCCC2 [Compound 31]
[1]; [4]
  ED50: 1.25 mg/kg
[1]; [5]
  ED50: 0.31 mg/kg
[3]
  ED50: 1.25 mg/kg

## Cc1nc2n(c(=O)c1CCN1CCC(N3c4ccccc4CC3C)CC1)CCCC2 (centres unmarked) [Compound 34]
[1]; [4]
  ED50: > 10 mg/kg
[1]; [5]
  ED50: ≤ 0.63 mg/kg
[3]
  ED50: 5 mg/kg

Source: US5919788A, “4-(1H-indol-1-yl)-1-piperidinyl derivatives” (Janssen Pharmaceutica, N.V., priority 1995, dated 1999)
